Reference: ChEMBL document CHEMBL1138690, “Carbonic anhydrase inhibitors. Inhibition of the newly isolated murine isozyme XIII with anions” (Bioorg Med Chem Lett, 2004)

Experiments:
Carbonic anhydrase 13 = Carbonic anhydrase 13 (Mus musculus, UniProt Q9D6N1)
Description: Inhibitory activity against mouse carbonic anhydrase XIII expressed in Escherichia coli TOP 10

Carbonic anhydrase V = Carbonic anhydrase V (Homo sapiens, UniProt Q9Y2D0+P35218)
Description: Inhibitory activity against human carbonic anhydrase V expressed in Escherichia coli

Carbonic anhydrase 1 = Carbonic anhydrase 1 (Homo sapiens, UniProt P00915)
Sequence of Carbonic anhydrase 1 (P00915 whole entry): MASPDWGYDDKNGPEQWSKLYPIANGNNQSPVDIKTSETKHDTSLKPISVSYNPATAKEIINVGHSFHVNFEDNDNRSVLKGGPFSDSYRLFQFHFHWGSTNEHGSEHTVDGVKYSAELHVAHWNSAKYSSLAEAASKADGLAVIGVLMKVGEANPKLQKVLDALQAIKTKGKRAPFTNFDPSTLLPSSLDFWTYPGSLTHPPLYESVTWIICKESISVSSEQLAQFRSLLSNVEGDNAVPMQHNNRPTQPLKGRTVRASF
Description: Inhibitory activity against human carbonic anhydrase I expressed in Escherichia coli

Sequence of Carbonic anhydrase 13 (Q9D6N1 whole entry): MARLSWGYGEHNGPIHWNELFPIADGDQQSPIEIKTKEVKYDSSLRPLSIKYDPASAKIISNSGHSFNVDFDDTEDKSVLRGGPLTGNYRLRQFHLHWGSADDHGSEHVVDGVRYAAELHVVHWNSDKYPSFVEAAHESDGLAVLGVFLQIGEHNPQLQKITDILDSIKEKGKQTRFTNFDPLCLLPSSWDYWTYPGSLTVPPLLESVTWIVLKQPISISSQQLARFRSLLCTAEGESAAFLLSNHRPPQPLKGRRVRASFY

| SMILES | Ki (Carbonic anhydrase 13) [mM] | Ki (Carbonic anhydrase V) [mM] | Ki (Carbonic anhydrase 1) [mM] |
| --- | --- | --- | --- |
| Br [BROMIDE] | 45 | – | – |
| N#CO [CYANATE] | 0.00025 | – | – |
| F [FLUORIDE ION] | 3 | – | – |
| Cl [HYDROCHLORIC ACID] | 138 | 156 | – |
| S [HYDROGEN SULFIDE] | 5.2 | 0.02 | – |
| I [IODIDE] | 5.4 | 25 | – |
| O=[N+]([O-])O [NITRIC ACID] | 36 | 16 | – |
| O=NO [NITROUS ACID] | 12.6 | – | – |
| OB(O)c1ccccc1 [PHENYLBORONIC ACID] | 2.85 | 4.51 | – |
| NS(=O)(=O)O [SULFAMATE] | 21.5 | 0.12 | – |
| NS(N)(=O)=O [SULFAMIDE] | 0.14 | – | – |
| O=S(=O)(O)O [SULFURIC ACID] | 267 | 680 | – |
| O=S(O)O [SULFUROUS ACID] | 75.5 | – | 18 |
| N#CS [THIOCYANIC ACID] | 0.74 | – | – |
